Measured values taken from ChEMBL document CHEMBL4680277, “Targeting Metabolism of Extracellular Nucleotides via Inhibition of Ectonucleotidases CD73 and CD39” (J Med Chem, 2020).

Tests used:
5'-nucleotidase [1] = molecular target: T1, 5'-nucleotidase (Homo sapiens, UniProt P21589); test: Inhibition of human C-terminal 6His-tagged CD73 (1 to 547 residues) expressed in HEK293F cells using 2 uM AMP as substrate by rapidfire mass spectrometry assay
[2] = Inhibition of human FLAG-tagged CD73 Thr376Ala mutant (1 to 552 residues) assessed as reduction in adenosine formation using AMP as substrate preincubated for 10 mins followed by substrate addition and measured after 30 mins by rapidfire mass spectrometry assay
Rattus norvegicus = organism: Rattus norvegicus; test: Inhibition of ecto-ATPase in Wistar rat cardiac synaptosomes assessed as reduction in ATP hydrolysis at 100 uM preincubated for 10 min followed by ATP addition and measured after 6 mins relative to control; type: subcellular; conditions: Heart, time 16.0 min
5'-nucleotidase [3] = molecular target: T1, 5'-nucleotidase; test: Inhibition of CD73 in human serum using 13C5-15N5-AMP as substrate preincubated for 60 mins followed by substrate addition and measured after 15 mins by LC/MS based assay; type: cell-free
[4] = molecular target: T2, Ectonucleoside triphosphate diphosphohydrolase 1 (Homo sapiens, UniProt P49961); test: Inhibition of human CD39 using ATP as substrate preincubated for 3 mins followed by substrate addition and measured after 10 to 15 mins by Dixon and Cornish-Bowden plot analysis; conditions: read-out: Ki(app)
T2 sequence (P49961 whole entry): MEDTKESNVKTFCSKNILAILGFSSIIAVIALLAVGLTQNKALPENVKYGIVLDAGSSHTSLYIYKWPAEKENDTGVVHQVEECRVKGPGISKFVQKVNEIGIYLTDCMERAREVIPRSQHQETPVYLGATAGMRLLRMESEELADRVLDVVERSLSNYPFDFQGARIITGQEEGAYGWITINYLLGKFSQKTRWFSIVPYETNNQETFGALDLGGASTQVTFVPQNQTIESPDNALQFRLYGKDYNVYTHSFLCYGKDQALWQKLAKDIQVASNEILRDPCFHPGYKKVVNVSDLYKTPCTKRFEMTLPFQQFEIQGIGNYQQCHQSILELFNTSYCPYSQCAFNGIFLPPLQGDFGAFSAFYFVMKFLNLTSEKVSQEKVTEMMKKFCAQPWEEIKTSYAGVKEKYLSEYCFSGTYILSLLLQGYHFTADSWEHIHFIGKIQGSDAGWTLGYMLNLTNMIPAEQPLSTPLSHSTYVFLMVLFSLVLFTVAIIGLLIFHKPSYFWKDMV

[5] = molecular target: T2, Ectonucleoside triphosphate diphosphohydrolase 1; test: Inhibition of human CD39 using ATP as substrate preincubated for 3 mins followed by substrate addition and measured after 10 to 15 mins by Malachite green reagent based assay
[6] = molecular target: T2, Ectonucleoside triphosphate diphosphohydrolase 1; test: Inhibition of human CD39 using ATP as substrate preincubated for 3 mins followed by substrate addition and measured after 10 to 15 mins by Cheng-Prusoff analysis; conditions: read-out: Ki(app)
[7] = molecular target: T3, Ectonucleoside triphosphate diphosphohydrolase 1 (Rattus norvegicus, UniProt P97687); test: Inhibition of rat CD39 expressed in CHO cells using ATP as substrate incubated for 10 mins by UV absorbance method; type: cell-based
T3 sequence (P97687 whole entry): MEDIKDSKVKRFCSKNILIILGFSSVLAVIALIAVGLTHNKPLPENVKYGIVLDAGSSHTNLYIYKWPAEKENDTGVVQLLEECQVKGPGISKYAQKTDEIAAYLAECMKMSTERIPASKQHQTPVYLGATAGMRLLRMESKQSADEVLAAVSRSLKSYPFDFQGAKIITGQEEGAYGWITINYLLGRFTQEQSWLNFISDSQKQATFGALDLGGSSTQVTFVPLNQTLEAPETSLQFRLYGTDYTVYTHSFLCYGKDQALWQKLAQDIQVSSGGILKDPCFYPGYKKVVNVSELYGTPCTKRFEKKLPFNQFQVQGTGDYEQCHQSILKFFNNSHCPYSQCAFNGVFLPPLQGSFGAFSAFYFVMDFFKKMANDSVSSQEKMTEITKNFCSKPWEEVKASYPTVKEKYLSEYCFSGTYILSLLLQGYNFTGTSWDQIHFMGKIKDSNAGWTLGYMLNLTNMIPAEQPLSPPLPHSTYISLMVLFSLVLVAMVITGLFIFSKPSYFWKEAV

[8] = molecular target: T4, Ectonucleoside triphosphate diphosphohydrolase 2 (Rattus norvegicus, UniProt O35795); test: Inhibition of rat NTPDase2 expressed in CHO cells using ATP as substrate incubated for 10 mins by UV absorbance method; type: cell-based
T4 sequence (O35795 whole entry): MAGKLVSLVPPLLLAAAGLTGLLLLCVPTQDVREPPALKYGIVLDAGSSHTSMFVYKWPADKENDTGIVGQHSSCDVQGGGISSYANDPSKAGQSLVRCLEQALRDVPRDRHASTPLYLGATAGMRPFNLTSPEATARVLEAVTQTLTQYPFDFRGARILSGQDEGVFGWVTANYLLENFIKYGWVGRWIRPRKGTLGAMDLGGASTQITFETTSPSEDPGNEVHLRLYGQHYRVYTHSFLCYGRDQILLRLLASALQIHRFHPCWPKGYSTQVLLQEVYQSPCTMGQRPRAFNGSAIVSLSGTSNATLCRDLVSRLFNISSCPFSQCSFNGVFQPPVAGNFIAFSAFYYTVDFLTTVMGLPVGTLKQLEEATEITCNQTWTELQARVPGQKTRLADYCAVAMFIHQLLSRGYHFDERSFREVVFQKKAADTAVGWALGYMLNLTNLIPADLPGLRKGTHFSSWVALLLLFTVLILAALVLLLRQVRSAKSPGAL

[9] = Inhibition of rat NTPDase3 expressed in CHO cells using ATP as substrate incubated for 10 mins by UV absorbance method; type: cell-based

T1 sequence (P21589 whole entry, the tested form may be a part): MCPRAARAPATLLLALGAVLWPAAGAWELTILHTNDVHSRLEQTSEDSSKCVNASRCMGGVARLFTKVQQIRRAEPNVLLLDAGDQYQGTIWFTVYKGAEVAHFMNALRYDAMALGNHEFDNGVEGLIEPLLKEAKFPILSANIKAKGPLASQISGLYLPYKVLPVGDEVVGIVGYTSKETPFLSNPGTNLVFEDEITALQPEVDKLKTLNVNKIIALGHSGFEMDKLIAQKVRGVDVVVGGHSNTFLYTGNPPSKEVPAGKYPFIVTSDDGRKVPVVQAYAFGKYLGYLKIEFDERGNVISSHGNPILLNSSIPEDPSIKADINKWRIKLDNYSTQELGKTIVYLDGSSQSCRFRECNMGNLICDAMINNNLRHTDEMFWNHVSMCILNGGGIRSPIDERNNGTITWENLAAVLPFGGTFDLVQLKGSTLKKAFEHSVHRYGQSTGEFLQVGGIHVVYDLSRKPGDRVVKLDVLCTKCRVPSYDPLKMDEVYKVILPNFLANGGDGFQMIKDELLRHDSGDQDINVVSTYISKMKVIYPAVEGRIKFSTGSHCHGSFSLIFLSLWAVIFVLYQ

Compound | IC50 (5'-nucleotidase [1]) [nM] | also measured
O=c1[nH]cc(-c2cc([C@H]3C[C@@H]3C(F)F)cnn2)c(=O)[nH]1 | < 62 | –
O=S1(=O)NC(Nc2cccc3[nH]ncc23)=Nc2c1cc(Cl)c(F)c2O | – | IC50 [2]: 15 nM
Cc1cc(-c2ccc(/N=N/c3ccc4c(S(=O)(=O)O)cc(S(=O)(=O)O)c(N)c4c3O)c(C)c2)ccc1/N=N/c1ccc2c(S(=O)(=O)O)cc(S(=O)(=O)O)c(N)c2c1O | – | inhibition (Rattus norvegicus): 97.2%
Cc1nnc(-c2c[nH]c(=O)[nH]c2=O)cc1[C@H]1C[C@@H]1C(F)F | < 62 | EC50 (5'-nucleotidase [3]): 51 nM
CCCCSc1nc2c(N)ncnc2n1[C@@H]1O[C@H](COP(=O)(O)OP(=O)(O)O)[C@@H](O)[C@H]1O | – | Ki [4]: 900 nM; IC50 [5]: 28000 nM
COc1nnc(-c2c[nH]c(=O)[nH]c2=O)cc1C1CCCCC1 | < 62 | –
CCCCSc1nc2c(N)ncnc2n1[C@@H]1O[C@H](COP(=O)(O)OP(=O)(O)OP(=O)(O)O)[C@@H](O)[C@H]1O | – | Ki [6]: 800 nM; IC50 [5]: 5600 nM
CC[C@H]1C[C@@H]1c1cc(-c2c[nH]c(=O)[nH]c2=O)nnc1C | < 62 | –
COc1nnc(-c2c[nH]c(=O)[nH]c2=O)cc1C1CCC1 | < 62 | –
COc1nnc(-c2c[nH]c(=O)[nH]c2=O)cc1C1CCC(F)(F)C1 (stereo unspecified) | < 62 | IC50 (5'-nucleotidase [1]; hek293f): < 62 nM
COc1nnc(-c2c[nH]c(=O)[nH]c2=O)cc1C1CC1 | < 62 | –
CCCCSc1nc2c(N)ncnc2n1[C@@H]1O[C@H](COP(=O)(O)O)[C@@H](O)[C@H]1O | – | IC50 [5]: 35000 nM
Nc1c(S(=O)(=O)O)cc(Nc2ccc(Nc3nc(Cl)nc(Nc4ccc(S(=O)(=O)O)c(S(=O)(=O)O)c4)n3)c(S(=O)(=O)O)c2)c2c1C(=O)c1ccccc1C2=O | – | Ki [7]: 20000 nM; Ki [8]: 24200 nM; Ki [9]: 1100 nM
O=c1[nH]cc(-c2cc(C3CCCC3)c(Cl)nn2)c(=O)[nH]1 | < 62 | –
CC[C@H]1C[C@@H]1c1cc(-c2c[nH]c(=O)[nH]c2=O)nnc1C#N | < 62 | –

Continued, in another order:

IC50 (5'-nucleotidase [1]) [nM] | Compound | also measured
< 62 | N#Cc1nnc(-c2c[nH]c(=O)[nH]c2=O)cc1C1CCCC1 | –
< 62 | O=c1[nH]cc(-c2cc([C@H]3C[C@@H]3C(F)F)c(Cl)nn2)c(=O)[nH]1 | –
< 62 | Cc1nnc(-c2c[nH]c(=O)[nH]c2=O)cc1[C@H]1C[C@@H]1C(C)(F)F | –
< 62 | CC(F)(F)[C@H]1C[C@@H]1c1cc(-c2c[nH]c(=O)[nH]c2=O)nnc1Cl | –
< 62 | N#Cc1nnc(-c2c[nH]c(=O)[nH]c2=O)cc1C1CCC1 | –
